Here are results for three molecules from patent US20240368145A1, “METHODS FOR TREATING CANCER” (IMMUNIC AG, priority 2021, published 2024).

One experiment concerns AR-V7 protein. The experiment can be described thus: Androgen receptor protein expression (western blot) in 22Rv1: AR-V7. It is filed as cell-based, human. The conditions noted are these: 22Rv1, 6 μM, 48 h; for AR-V7 protein level: western blot quantification. The method, then:
After 48 h, cell were lysed using cell extraction buffer (Life Technologies #FNN0011) for western blot. […] The membrane is then incubation for 1 hour in blocking buffer (5% milk in 20 mM Tris, 150 mM NaCl, pH 7.5, 0.05% Tween 20 [TBS-T]). After this incubation, the primary antibody is added and incubated overnight at 4° C. After washing, the membrane was incubated with the secondary antibody for 1 h. Visualization of the bands was performed using the femto maximum sensitivity substrate reagent and the luminescence signal recorded with the Fusion FX7 (Vilber). For protein quantification, InageJ was used.
A general note: A western blot detects proteins with antibodies after separation by electrophoresis.

For the next experiment, the system named is IL-17F. The experiment can be described thus: Cytokine assay, human PBMC stimulated with PHA: IL-17F. It counts as cell-based. Conditions: PHA-activated, 48 hours, read-out: IL-17F inhibition (IC50 range).
For experiment [1], the system named is full length AR (AR-FL) mRNA. The experiment in a line: Androgen receptor RNA level expression (qRT-PCR) in 22Rv1: AR-FL. It is filed as cell-based. The conditions noted are these: 22Rv1, 1 μM, 48 h; for mrna remaining at 1 µM: Homo sapiens, normalized to untreated control (vehicle/DMSO). (In general: Quantitative PCR measures a nucleic acid by following its amplification.)

For the next experiment, the system named is KLK2 mRNA. The experiment in a line: Expression of AR target genes (qRT-PCR) in 22Rv1: KLK2. It counts as cell-based. Conditions: 22Rv1, 1 μM; for mrna remaining at 1 µM: Homo sapiens, 48h, relative to vehicle control (DMSO).
The test system of another experiment is AR-V7 mRNA. The experiment can be described thus: Androgen receptor RNA level expression (qRT-PCR) in 22Rv1: AR-V7. The conditions noted are these: 22Rv1, 1 μM, 48 h; for mrna remaining at 1 µM: Homo sapiens, normalized to untreated control (vehicle/DMSO). It is filed as cell-based.
The next experiment deals with IFNγ. The experiment can be described thus: Cytokine assay, human PBMC stimulated with PHA: IFNγ. It is filed as cell-based. Conditions: PHA-activated, 48 hours, read-out: IFNγ inhibition (IC50 range).
Experiment [2] relates to prostate cancer cell line 22RV1, DU145, LNCAP, PC3 and VCaP. The experiment in a line: Oncolead profiling in a panel of 5 prostate cancer cell lines (summary). The conditions noted are these: for inhibition at 30 µM: highest concentration (30 μM), VCaP cell line not included, read-out: average growth inhibition; for growth inhibition: in 4 of 5 prostate cancer cell lines. It counts as cell-based. How it is done: (§1) Cell growth was assessed by measuring protein content using sulforhodamin B. Growth inhibition was calculated by (TCMD−T0)/TNCT72h−T0)*100% with TCMD is the tumor growth at 72 h with the respective compound concentration. To is the protein content of the cell line before treatment and TNCT72h is the tumor growth of the DMSO control.

For experiment [3], the system named is prostate cancer cell line VCaP. The experiment in a line: Oncolead sulforhodamin B growth inhibition, VCaP. It is filed as cell-based. Conditions: for GI50: Homo sapiens, VCaP, sulforhodamin B assay, 72 and 120 h treatment, read-out: GI50 range VCAP; for effect on growth of VCaP: highest dose (30 μM). How it is done:
as §1

For experiment [4], the system named is more than 75 representative cancer cell lines. The experiment in a line: Oncolead profiling in a panel of more than 75 cancer cell lines. It is filed as cell-based. Conditions: FIG. 1 and FIG. 2. The method, then: The compound of Example 1 and Example 1/1 was tested in vitro in more than 75 representative cancer cell lines at Oncolead (www.oncolead.com) according their standard procedure. The obtained data is summarised in FIG. 1 (Example 1) and FIG. 2 (Example 1/1).

A short description of experiment [5]: Viability and differentiation in different solid cancer cell lines. It counts as cell-based. Conditions: range over HEK293, A2780, MT3, MCF7, NCIH460, A-375, HCT15, HT1080.

By IC50 is commonly meant the point on the concentration scale where inhibition reaches its midpoint. What is called inhibition is how much of the control response was suppressed. Usually GI50 stands for the concentration that inhibits growth by half. Take `CC(C)(O)CCn1ncc(-c2onc(-c3c(F)cccc3Cl)c2-c2ncccn2)c1C(F)(F)F` [2/8]: in the experiment with AR-V7 protein, the “AR-V7 protein levels” value is reported as “strong reduction” and the AR-V7 protein level amounted to 0.309. Also, the IC50 in the experiment on IL-17F was below 25 nM. Further, in experiment [1], the “full length AR (AR-FL) mRNA expression” value is recorded as “strong reduction” and the mrna remaining at 1 µM amounted to 44.9%. Also, the “KLK2 mRNA level expression” value in the experiment on KLK2 mRNA (48 h) was “strong inhibition”. The molecule further had a mrna remaining at 1 µM in the experiment on KLK2 mRNA of 60.8%. Further, in the experiment with AR-V7 mRNA, the “AR-V7 mRNA expression” value was “strong reduction” and the mrna remaining at 1 µM turned out to be 34.8%. In the experiment on IFNγ, the IC50 is below 25 nM. For the same molecule, in experiment [2], the inhibition at 30 µM amounted to 80% and the “growth inhibition” value was “strong growth inhibition”. Moreover, in experiment [3], the GI50 was at least 5000 nM and the “effect on growth of VCaP” value is reported as “No effect”.
Turning to `COC(=O)c1c(-c2c(F)cccc2Cl)noc1-c1cnn(-c2cccc(Cl)c2)c1C(F)(F)F` [Example 1, Methyl 3-(2-chloro-6-fluorophenyl)-5-(1-(3-chlorophenyl)-5-(trifluoromethyl)-1H-pyrazol-4-yl)isoxazole-4-carboxylate], in the experiment on AR-V7 protein, the “AR-V7 protein levels” value is recorded as “strong reduction” and the AR-V7 protein level is listed as 0.368. For the same molecule, the IC50 in the experiment on IL-17F was below 25 nM. Besides, in experiment [1], the “full length AR (AR-FL) mRNA expression” value was “strong reduction” and the mrna remaining at 1 µM stood at 44.2%. Moreover, the “in vitro anticancer activity (Z-score panel, words)” value in experiment [4] is “exhibits an in vitro anticancer activity towards a broad spectrum of therapeutic cancer indication”. The molecule also had a mrna remaining at 1 µM with KLK2 mRNA of 59.8%. Also, in the experiment with AR-V7 mRNA, the “AR-V7 mRNA expression” value was “strong reduction” and the mrna remaining at 1 µM turned out to be 37%. Moreover, the IC50 in the experiment with IFNγ is below 25 nM. Also, in experiment [2], the inhibition at 30 µM came to 80% and the “growth inhibition” value is reported as “strong growth inhibition”. In experiment [3], the GI50 is at least 5000 nM and the “effect on growth of VCaP” value is on record as “No effect”. In addition, the IC50 in experiment [5] lay in the range of 1 to 25 nM.
For the molecule `Fc1cccc(Cl)c1-c1noc(-c2cnn(-c3cccc(Cl)c3)c2C(F)(F)F)c1-c1nccs1` [Example 1/1], in the experiment with AR-V7 protein, the “AR-V7 protein levels” value is “strong reduction” and the AR-V7 protein level is 0.323. Also, the concentration for half-maximal inhibition (IC50) in the experiment on IL-17F is below 25 nM. Moreover, in experiment [1], the “full length AR (AR-FL) mRNA expression” value is recorded as “strong reduction” and the mrna remaining at 1 µM stood at 43.6%. Further, the “in vitro anticancer activity (Z-score panel, words)” value in experiment [4] is “exhibits an in vitro anticancer activity towards a broad spectrum of therapeutic cancer indication”. Further, in the experiment on KLK2 mRNA, the mrna remaining at 1 µM turned out to be 74.2%. In the experiment with AR-V7 mRNA, the “AR-V7 mRNA expression” value is listed as “strong reduction” and the mrna remaining at 1 µM was 39.5%. In addition, in the experiment with IFNγ, the IC50 was below 25 nM. Further, in [2], the inhibition at 30 µM came to 80% and the “growth inhibition” value is “strong growth inhibition”. For the same molecule, in experiment [3], the GI50 was at least 5000 nM and the “effect on growth of VCaP” value was “No effect”. Besides, the IC50 in experiment [5] was in the range of 1 to 25 nM.
